Source: US20240293548A1, “CONTACT LENS FOR PHOTODYNAMIC INACTIVATION OF GERMS, PRODUCT AND METHOD OF TREATING FUNGAL KERATITIS BY APPLYING THE SAME” (NATIONAL CHENG KUNG UNIVERSITY, priority 2023, published 2024)

What was measured:
[1] = tested on: Candida albicans (drug-resistant strain, BCRC 21538 / ATCC 10231); experiment: Antimicrobial efficacy of rose bengal-PDT (colony counting after green light exposure); type: cell-based; details: 0.2 wt % RB; for log reduction value of the amounts of C. albicans: compared to without light exposure; for antimicrobial rate: equivalent of log reduction
Description: A drug-resistant strain of Candida albicans was bought from the Bioresource Collection and Research Center (BCRC), Food Industry Research and Development Institute (FIRDI), 331, Shipin Rd., East Dist., Hsinchu City, Taiwan (postcode: 300193) under the accession number of BCRC 21538. The same strain could also be bought from American Type Culture Collection (ATCC), VA, USA under an accession number of ATCC 10231.
The Candida albicans was grown and prepared in a fungal solution with an amount of 1×10^7 CFU/mL and mixed with an equal volume of rose bengal (RB) solution (i.e., the mixed volume ratio was 1:1) to obtain a mixed solution containing 0.2 wt % RB (0.2 wt % RB group).
A portion of the mixed solution containing 0.2 wt % RB and fungi was exposed to green light of 10 J/cm^2 or 20 J/cm^2 at 25±1° C., and another portion of the mixed solution was not treated with light exposure. The light source of the aforementioned green light was a commercial green light LED with an emission peak at the wavelength of 520 nm. […] Noted that three drops represented three repeats. […] In the control group, the fungal solution was mixed with an equal volume of PBS.

C. albicans = experiment: Antimicrobial efficacy of the photoactive solution after adding a low concentration of hydrogen peroxide; type: cell-based, Candida albicans; details: for C. albicans amount compared to the NC group: no light exposure
Description: The negative control (referred to as NC) group was the fungal solution of C. albicans not being treated with RB, hydrogen peroxide, and light exposure. The light control (referred to as LC) group was the fungal solution of C. albicans exposed to light but contained neither RB nor hydrogen peroxide. […] The hydrogen peroxide (referred to as H2O2) group was the fungal solution of C. albicans treated with 0.03 wt % hydrogen peroxide without RB for 15 minutes but not subjected to the light exposure treatment. The photodynamic therapy (referred to as PDT) group was the fungal solution of C. albicans treated with 0.1 wt % RB without hydrogen peroxide for 15 minutes and subjected to 35 J/cm^2 green light exposure treatment. The photodynamic therapy with 0.03 wt hydrogen peroxide (referred to as H2O2+PDT) group was the fungal solution of C. albicans treated with 0.1 wt % RB and 0.03 wt % hydrogen peroxide for 15 minutes and subjected to the 35 J/cm^2 green light exposure treatment. FIG. 6 was a bar chart illustrating the amount of C. albicans after different treatments in the fungal solution according to some embodiments of the present invention. The x-axis represented the NC group, the LC group, the DC group, the H2O2 group, the PDT group, and the H2O2+PDT group from left to right. The y-axis represented the C. albicans amount (unit: log CFU/mL).

Row | SMILES | log reduction value of the amounts of C. albicans ([1]; 10 J/cm^2 green light (520 nm)) | antimicrobial rate ([1]; 10 J/cm^2 green light) | log reduction value of the amounts of C. albicans ([1]; 20 J/cm^2 green light (520 nm)) | antimicrobial rate ([1]; 20 J/cm^2 green light) | C. albicans amount compared to the NC group (C. albicans; DC group: 0.1 wt % RB for 15 minutes) | log reduction value of the C. albicans amount (C. albicans; PDT group: 0.1 wt % RB without hydrogen peroxide, 15 minutes, 35 J/cm^2 green light, compared to NC group) | C. albicans amount compared to the NC group (C. albicans; H2O2 group: 0.03 wt % hydrogen peroxide without RB for 15 minutes)
1 | O=C1OC2(c3cc(I)c(O)c(I)c3Oc3c2cc(I)c(O)c3I)c2c(Cl)c(Cl)c(Cl)c(Cl)c21 [RB, rose bengal] | 1 | 90% | 6 | 99.9999% | no significant difference | 2.5 | –
2 | OO [hydrogen peroxide] | – | – | – | – | – | – | no significant difference
